# Target: T1, Full-length USP19 (Homo sapiens, UniProt O94966)
# T1 construct: Full-length USP19 was purchased from Boston Biochem (E-576); purchased Boston Biochem E-576
# T1 sequence (O94966 1-1318): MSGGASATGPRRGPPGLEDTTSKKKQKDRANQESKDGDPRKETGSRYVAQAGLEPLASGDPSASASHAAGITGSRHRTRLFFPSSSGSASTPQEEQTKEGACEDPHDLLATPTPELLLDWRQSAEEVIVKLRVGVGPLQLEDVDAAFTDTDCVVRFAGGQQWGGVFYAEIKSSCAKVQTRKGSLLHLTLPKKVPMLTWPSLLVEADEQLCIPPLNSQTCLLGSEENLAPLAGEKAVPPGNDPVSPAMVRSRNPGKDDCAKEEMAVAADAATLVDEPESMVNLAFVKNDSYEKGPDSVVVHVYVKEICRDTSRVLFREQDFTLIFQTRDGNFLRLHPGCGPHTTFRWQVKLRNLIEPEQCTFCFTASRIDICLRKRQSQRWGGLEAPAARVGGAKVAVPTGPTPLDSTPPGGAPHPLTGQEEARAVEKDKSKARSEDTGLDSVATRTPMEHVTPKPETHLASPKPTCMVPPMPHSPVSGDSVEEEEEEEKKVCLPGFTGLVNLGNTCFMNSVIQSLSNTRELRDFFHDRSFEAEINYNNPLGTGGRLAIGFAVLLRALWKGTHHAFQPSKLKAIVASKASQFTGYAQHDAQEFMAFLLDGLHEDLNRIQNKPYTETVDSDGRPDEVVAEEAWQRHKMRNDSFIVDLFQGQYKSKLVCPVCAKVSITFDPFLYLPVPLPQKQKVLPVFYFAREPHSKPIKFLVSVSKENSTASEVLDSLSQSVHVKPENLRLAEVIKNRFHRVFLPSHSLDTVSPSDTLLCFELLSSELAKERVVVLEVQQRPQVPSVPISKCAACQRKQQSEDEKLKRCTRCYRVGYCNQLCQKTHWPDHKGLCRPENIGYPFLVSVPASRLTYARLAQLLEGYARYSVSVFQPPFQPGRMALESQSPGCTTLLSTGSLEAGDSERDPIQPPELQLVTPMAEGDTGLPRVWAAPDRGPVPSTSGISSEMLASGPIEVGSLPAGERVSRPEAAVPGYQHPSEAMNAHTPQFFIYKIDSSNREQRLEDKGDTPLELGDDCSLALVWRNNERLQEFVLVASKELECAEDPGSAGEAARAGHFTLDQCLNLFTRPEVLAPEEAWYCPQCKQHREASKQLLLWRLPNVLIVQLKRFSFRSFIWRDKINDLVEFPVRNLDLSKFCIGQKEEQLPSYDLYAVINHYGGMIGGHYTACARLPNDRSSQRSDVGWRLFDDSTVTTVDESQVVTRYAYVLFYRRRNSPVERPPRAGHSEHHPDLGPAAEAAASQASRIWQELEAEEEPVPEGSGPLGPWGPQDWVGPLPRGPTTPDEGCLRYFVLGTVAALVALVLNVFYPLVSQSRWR
# Assay: USP19 fluorescence polarisation (FP) homogeneous assay with Ubiquitin-Lys-TAMRA substrate
# Type: biochemical
# Conditions: 2.5 nM USP19, 30 min pre-incubation, average of at least two duplicate experiments
# Procedure, shortened: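 Full-length USP19 preincubated 30 min at RT with inhibitor (200 μM to 2 μM series, 8–18 points) before adding 500 nM Ubiquitin-Lys-TAMRA substrate.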
row,Structure (SMILES),IC50 [µM]
1,"Cn1nccc1-c1cc(=O)n(CC2(O)CCN(C(=O)NCc3ccccc3)CC23CCCC3)cn1 (stereo not drawn) [Example 205, N-Benzyl-10-hydroxy-10-((4-(1-methyl-1H-pyrazol-5-yl)-6-oxopyrimidin-1(6H)-yl)methyl)-7-azaspiro[4.5]decane-7-carboxamide]",0.5 to 5
2,"O=C(N1CCC(O)(Cn2cnc(-c3ccccc3)cc2=O)C2(CCCC2)C1)N1CCCC1C(F)(F)F (stereo not drawn) [Example 206, 3-((10-Hydroxy-7-(2-(trifluoromethyl)pyrrolidine-1-carbonyl)-7-azaspiro[4.5]decan-10-yl)methyl)-6-phenylpyrimidin-4(3H)-one]",0.5 to 5
3,"C[C@@H]1CNCCN1C(=O)N1CCC(O)(Cn2cnc(-c3ccccc3)cc2=O)C2(CCCC2)C1 (stereo partly drawn) [Example 207, 3-((10-Hydroxy-7-((R)-2-methylpiperazine-1-carbonyl)-7-azaspiro[4.5]decan-10-yl)methyl)-6-phenylpyrimidin-4(3H)-one]",50 to 250
4,"CC(C)C1CNCCN1C(=O)N1CCC(O)(Cn2cnc(-c3ccccc3)cc2=O)C2(CCCC2)C1 (stereo not drawn) [Example 208, 3-((10-Hydroxy-7-(2-isopropylpiperazine-1-carbonyl)-7-azaspiro[4.5]decan-10-yl)methyl)-6-phenylpyrimidin-4(3H)-one]",50 to 250
5,"O=C(N1CC2CC2C1)N1CCC(O)(Cn2cnc(-c3ccccc3)cc2=O)C2(CCCC2)C1 (stereo not drawn) [Example 209, 3-((7-(3-Azabicyclo[3.1.0]hexane-3-carbonyl)-10-hydroxy-7-azaspiro[4.5]decan-10-yl)methyl)-6-phenylpyrimidin-4(3H)-one]",50 to 250

# Next, values leading:
row,IC50 [µM],Structure (SMILES)
1,< 0.5,"O=C(N1CC[C@@](O)(Cn2cnc(-c3ccccc3)cc2=O)C2(CCCC2)C1)N1CCNC[C@@H]1c1ccccc1 [Example 210, 3-(((S)-10-Hydroxy-7-((S)-2-phenylpiperazine-1-carbonyl)-7-azaspiro[4.5]decan-10-yl)methyl)-6-phenylpyrimidin-4(3H)-one]"
2,< 0.5,"O=C(N1CC[C@@](O)(Cn2cnc(-c3ccccc3)cc2=O)C2(CCCC2)C1)N1CCOC[C@H]1c1ccccc1 [Example 211, 3-(((S)-10-Hydroxy-7-((R)-3-phenylmorpholine-4-carbonyl)-7-azaspiro[4.5]decan-10-yl)methyl)-6-phenylpyrimidin-4(3H)-one]"
3,50 to 250,"O=C(N1CC[C@@](O)(Cn2cnc(-c3ccccc3)cc2=O)C2(CCCC2)C1)N1CCOC[C@@H]1c1ccccc1 [Example 212, 3-(((S)-10-Hydroxy-7-((S)-3-phenylmorpholine-4-carbonyl)-7-azaspiro[4.5]decan-10-yl)methyl)-6-phenylpyrimidin-4(3H)-one]"
4,< 0.5,"O=C(N1CC[C@@](O)(Cn2cnc(-c3ccccc3)cc2=O)C2(CCCC2)C1)N1CCC[C@H]1c1ccccc1 [Example 213, 3-(((S)-10-Hydroxy-7-((S)-2-phenylpyrrolidine-1-carbonyl)-7-azaspiro[4.5]decan-10-yl)methyl)-6-phenylpyrimidin-4(3H)-one]"
5,< 0.5,"O=C(NCc1cccs1)N1CC[C@@](O)(Cn2cnc(-c3ccccc3)cc2=O)C2(CCCC2)C1 [Example 214, (S)-10-Hydroxy-10-((6-oxo-4-phenylpyrimidin-1(6H)-yl)methyl)-N-(thiophen-2-ylmethyl)-7-azaspiro[4.5]decane-7-carboxamide]"
6,50 to 250,"N#Cc1ccc(CNC(=O)N2CC[C@@](O)(Cn3cnc(-c4ccccc4)cc3=O)C3(CCCC3)C2)cc1 [Example 215, (S)—N-(4-Cyanobenzyl)-10-hydroxy-10-((6-oxo-4-phenylpyrimidin-1(6H)-yl)methyl)-7-azaspiro[4.5]decane-7-carboxamide]"
7,< 0.5,"O=C(NCc1cccc(F)c1)N1CC[C@@](O)(Cn2cnc(-c3ccccc3)cc2=O)C2(CCCC2)C1 [Example 216, (S)—N-(3-Fluorobenzyl)-10-hydroxy-10-((6-oxo-4-phenylpyrimidin-1(6H)-yl)methyl)-7-azaspiro[4.5]decane-7-carboxamide]"
